According to US20100144779A1, “Marine Alkalod Makaluvamines and Derivatives Thereof” (THE UAB RESEARCH FOUNDATION, priority 2007, published 2010):

Columns and labels:
Test in all cases: NCI60 cell line screen (SRB)
Type in all cases: cell-based, human
HT-29 = conditions: HT-29, Colon Cancer, 48 h
Procedure: (§1) This panel implements the NCI60 cell line screen, including leukemia, non-small cell lung cancer, colon cancer, central nervous system cancer, melanoma, ovarian cancer, renal cancer, prostate cancer and breast cancer. The cell lines tested are specified in Table 3.
(§2) Generally, the human tumor cell lines of the cancer screening panel are grown in RPMI 1640 medium containing 5% fetal bovine serum and 2 mM L-glutamine. For a typical screening experiment, cells are inoculated into 96 well microtiter plates in 100 μL at plating densities ranging from 5,000 to 40,000 cells/well depending on the doubling time of individual cell lines. After cell inoculation, the microtiter plates are incubated at 37° C., 5% CO2, 95% air and 100% relative humidity for 24 h prior to addition of experimental drugs. After 24 h, two plates of each cell line are fixed in situ with TCA, to represent a measurement of the cell population for each cell line at the time of drug addition (Tz). Experimental drugs are solubilized in dimethyl sulfoxide at 400-fold the desired final maximum test concentration and stored frozen prior to use. At the time of drug addition, an aliquot of frozen concentrate is thawed and diluted to twice the desired final maximum test concentration with complete medium containing 50 μg/ml gentamicin. Additional four, 10-fold or ½ log serial dilutions are made to provide a total of five drug concentrations plus control. Aliquots of 100 μl of these different drug dilutions are added to the appropriate microtiter wells already containing 100 μl of medium, resulting in the required final drug concentrations.
(§3) Following drug addition, the plates are incubated for an additional 48 h at 37° C., 5% CO2, 95% air, and 100% relative humidity. For adherent cells, the assay is terminated by the addition of cold TCA. Cells are fixed in situ by the gentle addition of 50 μl of cold 50% (w/v) TCA (final concentration, 10% TCA) and incubated for 60 minutes at 4° C. The supernatant is discarded, and the plates are washed five times with tap water and air dried. Sulforhodamine B (SRB) solution (100 μl) at 0.4% (w/v) in 1% acetic acid is added to each well, and plates are incubated for 10 minutes at room temperature. After staining, unbound dye is removed by washing five times with 1% acetic acid and the plates are air dried. Bound stain is subsequently solubilized with 10 mM trizma base, and the absorbance is read on an automated plate reader at a wavelength of 515 nm. For suspension cells, the methodology is the same except that the assay is terminated by fixing settled cells at the bottom of the wells by gently adding 50 μl of 80% TCA (final concentration, 16% TCA). Using the seven absorbance measurements (time zero, Tz, control growth, (control), and test growth in the presence of drug at the five concentration levels (Ti)), the percentage growth is calculated at each of the drug concentrations levels. Percentage growth inhibition is calculated as:
(§4) [(Ti−Tz)/(C−Tz)]×100 for concentrations for which Ti>/=Tz
(§5) [(Ti−Tz)/Tz]×100 for concentrations for which Ti<Tz.

CCRF-CEM = conditions: Leukemia, 48 h
Procedure: as §1, §2, §3, §4, §5

IGROV1 = conditions: IGROV1, Ovarian Cancer, 48 h
Procedure: as §1, §2, §3, §4, §5

SK-MEL-2 = conditions: SK-MEL-2, Melanoma, 48 h
Procedure: as §1, §2, §3, §4, §5

HCT-15 = conditions: HCT-15, Colon Cancer, 48 h
Procedure: as §1, §2, §3, §4, §5

A549/ATCC = conditions: Non-Small Cell Lung Cancer, 48 h
Procedure: as §1, §2, §3, §4, §5

T-47D = conditions: Breast Cancer, 48 h
Procedure: as §1, §2, §3, §4, §5

HOP-92 = conditions: HOP-92, Non-Small Cell Lung Cancer, 48 h
Procedure: as §1, §2, §3, §4, §5

NCI/ADR-RES = conditions: Breast Cancer, 48 h
Procedure: as §1, §2, §3, §4, §5

ACHN = conditions: Renal Cancer, 48 h
Procedure: as §1, §2, §3, §4, §5

SW-620 = conditions: SW-620, Colon Cancer, 48 h
Procedure: as §1, §2, §3, §4, §5

SNB-19 = conditions: SNB-19, CNS Cancer, 48 h
Procedure: as §1, §2, §3, §4, §5

MALME-3M = conditions: Melanoma, 48 h
Procedure: as §1, §2, §3, §4, §5

HOP-62 = conditions: HOP-62, Non-Small Cell Lung Cancer, 48 h
Procedure: as §1, §2, §3, §4, §5

RPMO-8226 = conditions: RPMO-8226, Leukemia, 48 h
Procedure: as §1, §2, §3, §4, §5

KM12 = conditions: KM12, Colon Cancer, 48 h
Procedure: as §1, §2, §3, §4, §5

UACC-257 = conditions: UACC-257, Melanoma, 48 h
Procedure: as §1, §2, §3, §4, §5

OVCAR3 = conditions: OVCAR3, Ovarian Cancer, 48 h
Procedure: as §1, §2, §3, §4, §5

SNB-75 = conditions: SNB-75, CNS Cancer, 48 h
Procedure: as §1, §2, §3, §4, §5

HS 578T = conditions: Breast Cancer, 48 h
Procedure: as §1, §2, §3, §4, §5

NCIH332M = conditions: Non-Small Cell Lung Cancer, 48 h
Procedure: as §1, §2, §3, §4, §5

U251 = conditions: U251, CNS Cancer, 48 h
Procedure: as §1, §2, §3, §4, §5

PC-3 = conditions: PC-3, Prostate Cancer, 48 h
Procedure: as §1, §2, §3, §4, §5

COLO 205 = conditions: COLO 205, Colon Cancer, 48 h
Procedure: as §1, §2, §3, §4, §5

SN12C = conditions: Renal Cancer, 48 h
Procedure: as §1, §2, §3, §4, §5

HCT-116 = conditions: HCT-116, Colon Cancer, 48 h
Procedure: as §1, §2, §3, §4, §5

## CNC1=CC2=NCCc3c[nH]c(c32)C1=O [Compound 4a]
HT-29
  GI50: 2540 nM
CCRF-CEM
  GI50: 2970 nM
IGROV1
  GI50: 2900 nM
SK-MEL-2
  GI50: 1670 nM
HCT-15
  GI50: 5090 nM
A549/ATCC
  GI50: 2780 nM
T-47D
  GI50: 3500 nM
HOP-92
  GI50: 1280 nM
NCI/ADR-RES
  GI50: 9330 nM
ACHN
  GI50: 13100 nM
SW-620
  GI50: 3100 nM
SNB-19
  GI50: 3430 nM
MALME-3M
  GI50: 1210 nM
HOP-62
  GI50: 1280 nM
RPMO-8226
  GI50: 5990 nM
KM12
  GI50: 3830 nM
UACC-257
  GI50: 2000 nM
OVCAR3
  GI50: 6300 nM
SNB-75
  GI50: 1380 nM
HS 578T
  GI50: 10200 nM
NCIH332M
  GI50: 2890 nM
U251
  GI50: 4200 nM
PC-3
  GI50: 3610 nM
COLO 205
  GI50: 1750 nM
SN12C
  GI50: 3060 nM
HCT-116
  GI50: 2940 nM

## O=C1C(NCc2ccccc2)=CC2=NCCc3c[nH]c1c32 [Compound 4c]
HT-29
  GI50: 488 nM
CCRF-CEM
  GI50: 900 nM
IGROV1
  GI50: 793 nM
SK-MEL-2
  GI50: 5200 nM
HCT-15
  GI50: 1390 nM
A549/ATCC
  GI50: 2140 nM
T-47D
  GI50: 523 nM
HOP-92
  GI50: 308 nM
NCI/ADR-RES
  GI50: 3510 nM
ACHN
  GI50: 2800 nM
SW-620
  GI50: 1070 nM
SNB-19
  GI50: 1960 nM
MALME-3M
  GI50: 300 nM
HOP-62
  GI50: 3700 nM
RPMO-8226
  GI50: 1360 nM
KM12
  GI50: 2060 nM
UACC-257
  GI50: 315 nM
OVCAR3
  GI50: 2580 nM
SNB-75
  GI50: 1650 nM
HS 578T
  GI50: 5200 nM
NCIH332M
  GI50: 628 nM
U251
  GI50: 2660 nM
PC-3
  GI50: 1540 nM
COLO 205
  GI50: 378 nM
SN12C
  GI50: 1890 nM
HCT-116
  GI50: 306 nM

## O=C(O)C(F)(F)F.O=C1C(NCCc2ccc3c(c2)OCO3)=CC2=NCCc3c[nH]c1c32 [Compound 6]
HT-29; Homo sapiens
  GI50: 2070 nM
CCRF-CEM; Homo sapiens
  GI50: 2970 nM
IGROV1; Homo sapiens, IGROV-1
  GI50: 2520 nM
SK-MEL-2; Homo sapiens
  GI50: 5820 nM
HCT-15; Homo sapiens
  GI50: 1860 nM
T-47D; Homo sapiens, T47D
  GI50: 2970 nM
HOP-92; Homo sapiens
  GI50: 5450 nM
NCI/ADR-RES; Homo sapiens
  GI50: 1760 nM
ACHN; Homo sapiens
  GI50: 3250 nM
SW-620; Homo sapiens
  GI50: 3440 nM
SNB-19; Homo sapiens
  GI50: 3290 nM
MALME-3M; Homo sapiens
  GI50: 343 nM
HOP-62; Homo sapiens
  GI50: 2500 nM
KM12; Homo sapiens
  GI50: 2290 nM
UACC-257; Homo sapiens
  GI50: 2970 nM
OVCAR3; Homo sapiens, OVCAR-3
  GI50: 2020 nM
SNB-75; Homo sapiens
  GI50: 3490 nM
HS 578T; Homo sapiens
  GI50: 2860 nM
NCIH332M; Homo sapiens, NCI-H332M
  GI50: 2820 nM
U251; Homo sapiens, U-251
  GI50: 3050 nM
PC-3; Homo sapiens
  GI50: 5930 nM
COLO 205; Homo sapiens
  GI50: 1020 nM
SN12C; Homo sapiens
  GI50: 2690 nM
HCT-116; Homo sapiens
  GI50: 2410 nM

## COc1ccc(CCNC2=CC3=NCCc4c[nH]c(c43)C2=O)cc1OC.O=C(O)C(F)(F)F [Compound 20]
HT-29; Homo sapiens
  GI50: 2540 nM
CCRF-CEM; Homo sapiens
  GI50: 10600 nM
IGROV1; Homo sapiens, IGROV-1
  GI50: 4240 nM
SK-MEL-2; Homo sapiens
  GI50: 730 nM
HCT-15; Homo sapiens
  GI50: 2650 nM
A549/ATCC; Homo sapiens
  GI50: 2720 nM
T-47D; Homo sapiens, T47D
  GI50: 2490 nM
HOP-92; Homo sapiens
  GI50: 1030 nM
NCI/ADR-RES; Homo sapiens
  GI50: 12400 nM
ACHN; Homo sapiens
  GI50: 4210 nM
SW-620; Homo sapiens
  GI50: 3090 nM
SNB-19; Homo sapiens
  GI50: 3260 nM
MALME-3M; Homo sapiens
  GI50: 249 nM
HOP-62; Homo sapiens
  GI50: 5170 nM
KM12; Homo sapiens
  GI50: 2230 nM
UACC-257; Homo sapiens
  GI50: 3070 nM
OVCAR3; Homo sapiens, OVCAR-3
  GI50: 1610 nM
SNB-75; Homo sapiens
  GI50: 5220 nM
HS 578T; Homo sapiens
  GI50: 5040 nM
NCIH332M; Homo sapiens, NCI-H332M
  GI50: 2840 nM
U251; Homo sapiens, U-251
  GI50: 3440 nM
PC-3; Homo sapiens
  GI50: 7620 nM
COLO 205; Homo sapiens
  GI50: 1390 nM
SN12C; Homo sapiens
  GI50: 3070 nM
HCT-116; Homo sapiens
  GI50: 2400 nM

## O=C(O)C(F)(F)F.O=C1C(NCc2ccc(F)cc2)=CC2=NCCc3c[nH]c1c32 [Compound 28]
HT-29; Homo sapiens
  GI50: 596 nM
CCRF-CEM; Homo sapiens
  GI50: 1430 nM
IGROV1; Homo sapiens, IGROV-1
  GI50: 1430 nM
SK-MEL-2; Homo sapiens
  GI50: 4530 nM
HCT-15; Homo sapiens
  GI50: 1480 nM
A549/ATCC; Homo sapiens
  GI50: 1440 nM
T-47D; Homo sapiens, T47D
  GI50: 633 nM
HOP-92; Homo sapiens
  GI50: 1680 nM
NCI/ADR-RES; Homo sapiens
  GI50: 3110 nM
ACHN; Homo sapiens
  GI50: 2040 nM
SW-620; Homo sapiens
  GI50: 1820 nM
SNB-19; Homo sapiens
  GI50: 1790 nM
MALME-3M; Homo sapiens
  GI50: 208 nM
HOP-62; Homo sapiens
  GI50: 3790 nM
RPMO-8226; Homo sapiens
  GI50: 559 nM
KM12; Homo sapiens
  GI50: 2020 nM
UACC-257; Homo sapiens
  GI50: 189 nM
OVCAR3; Homo sapiens, OVCAR-3
  GI50: 2230 nM
SNB-75; Homo sapiens
  GI50: 5200 nM
HS 578T; Homo sapiens
  GI50: 44000 nM
NCIH332M; Homo sapiens, NCI-H332M
  GI50: 1170 nM
U251; Homo sapiens, U-251
  GI50: 1990 nM
PC-3; Homo sapiens
  GI50: 1570 nM
COLO 205; Homo sapiens
  GI50: 365 nM
SN12C; Homo sapiens
  GI50: 1950 nM
HCT-116; Homo sapiens
  GI50: 715 nM
